test system: Peritoneal macrophage; assay: cells; settings: Mus musculus, Swiss, 120 h, read-out: pIC50 (converted)

| SMILES | IC50 |
| --- | --- |
| COc1ccc(C(N)=O)cc1S(=O)(=O)N(Cc1ccccc1)Cc1ccccc1 | > 64.6 µM |
| COCCN(Cc1ccc(F)cc1)S(=O)(=O)c1cc(C(=O)N2CCOCC2)ccc1OC | > 64.6 µM |
| CS(=O)(=O)c1ccccc1S(=O)(=O)N(Cc1ccccc1)Cc1ccccc1 | > 64.6 µM |
| N#Cc1ccccc1S(=O)(=O)N(Cc1ccccc1)Cc1ccccc1 | > 64.6 µM |
| COc1ncccc1S(=O)(=O)N(Cc1ccccc1)Cc1ccccc1 | 64.6 µM |
| COc1ccc(OC)c(S(=O)(=O)N(Cc2ccccc2)Cc2ccccc2)c1 | > 64.6 µM |
| COc1ccc(OC)c(S(=O)(=O)N(Cc2ccc(F)cc2)Cc2cnc(OC)nc2OC)c1 | > 64.6 µM |
| COCCN(Cc1ccc(F)cc1)S(=O)(=O)c1cc(C#N)ccc1OC | > 64.6 µM |
| COc1ccc(C#N)cc1S(=O)(=O)N(Cc1ccccc1)Cc1ccccc1 | > 64.6 µM |
| COc1ccc(N2CCOCC2)cc1S(=O)(=O)N(Cc1ccc(F)cc1)Cc1ccc(F)cc1 | > 64.6 µM |
| COc1ccc(C(=O)O)cc1S(=O)(=O)N(Cc1ccccc1)Cc1ccccc1 | > 64.6 µM |
| COc1ccc(C(=O)N2CCOCC2)cc1S(=O)(=O)N(Cc1ccc(F)cc1)Cc1ccc(C(F)(F)F)nc1 | > 64.6 µM |
| COc1ccc(S(=O)(=O)N(Cc2ccccc2)Cc2ccccc2)cc1 | > 64.6 µM |
| COc1ccc(C(=O)N2CCOCC2)cc1S(=O)(=O)N(Cc1ccccc1)CC(C)(C)C | > 64.6 µM |
| COc1ccc(C#N)cc1S(=O)(=O)N(Cc1ccc(F)cc1)C1CCOCC1 | > 64.6 µM |
| COc1ccc([S+](C)[O-])cc1S(=O)(=O)N(Cc1ccccc1)Cc1ccccc1 (stereo not drawn) | > 64.6 µM |

| SMILES | IC50 |
| --- | --- |
| COc1ccc(C#N)cc1S(=O)(=O)N(Cc1ccccc1)Cc1cnc(C(F)(F)F)nc1 | > 64.6 µM |
| COc1ccc(OC)c(S(=O)(=O)N(Cc2ccc(F)cc2)c2ccc(F)cc2)c1 | > 64.6 µM |
| COc1ccc(S(N)(=O)=O)cc1S(=O)(=O)N(Cc1ccccc1)Cc1ccccc1 | > 64.6 µM |
| COc1ccc(C(=O)N2CCOCC2)cc1S(=O)(=O)N(Cc1ccccc1)Cc1cnc(C(F)(F)F)nc1 | > 64.6 µM |
| COc1ccc(OC)c(S(=O)(=O)N(Cc2ccc(F)cc2)Cc2nc(C)no2)c1 | > 64.6 µM |
| COc1ccc(S(C)(=O)=O)cc1S(=O)(=O)N(Cc1ccc(F)cc1)Cc1ccc(F)cc1 | > 64.6 µM |
| COCCOCN1CNc2cc(OC)c(S(=O)(=O)N(Cc3ccccc3)Cc3ccccc3)cc2S1(=O)=O | > 64.6 µM |
| COc1ccccc1S(=O)(=O)N(Cc1ccccc1)Cc1ccccc1 | > 64.6 µM |
| COc1ccc(CN2CCOCC2)cc1S(=O)(=O)N(Cc1ccc(F)cc1)Cc1ccc(F)cc1 | > 64.6 µM |
| Cn1cccc(S(=O)(=O)N(Cc2ccc(F)cc2)Cc2ccc(F)cc2)c1=O | 64.6 µM |
| COc1ccc(C(=O)NC2COC2)cc1S(=O)(=O)N(Cc1ccc(F)cc1)Cc1ccc(F)cc1 | > 64.6 µM |
| COc1ccc(C(=O)N2CCOCC2)cc1S(=O)(=O)N(Cc1ccc(F)cc1)CC(C)C | > 64.6 µM |
| COc1ccc(C#N)cc1S(=O)(=O)N(Cc1ccc(C(F)(F)F)nc1)Cc1ccc(C(F)(F)F)nc1 | > 64.6 µM |
| O=S(=O)(c1cc(F)ccc1F)N(Cc1ccc(F)cc1)Cc1ccc(F)cc1 | > 64.6 µM |
| COc1ccc(C(=O)N2CCOCC2)cc1S(=O)(=O)N(Cc1ccc(C(F)(F)F)nc1)CC(C)(C)C | > 64.6 µM |

test system: not listed separately; assay: in vitro; settings: mouse, plasma

| remaining at 6 h | SMILES |
| --- | --- |
| 22% | COc1ccc(C(=O)N2CCOCC2)cc1S(=O)(=O)N(Cc1ccc(F)cc1)Cc1ccc(C(F)(F)F)nc1 |
| 42% | COc1ccc(C(=O)N2CCOCC2)cc1S(=O)(=O)N(Cc1ccccc1)Cc1cnc(C(F)(F)F)nc1 |

Source: ChEMBL document CHEMBL4673183, “Hit-to-lead optimization of a benzene sulfonamide series for potential antileishmanial agents” (RSC Med Chem, 2020)
